# Results from patent US20050137221A1, “Novel azasugar derivative and drug containing the same as the active ingredient” (priority 2002, published 2005).
# What was measured:
# [1] = Inhibition of TPA-stimulated release of HB-EGF-AP fusion protein from HT-1080 transfectant; format: cell-based; conditions: Homo sapiens, 1 h, 60 nM TPA for 60 min, AP activity of culture supernatant at 405 nm
# Description: Human fibrosarcoma HT-1080 transfectant expressing fusion protein of HB-EGF and human placental alkaline phosphatase (AP) were used for following tests.
# The cultured transfectant was treated with Trypsin-EDTA solution, and suspended in Minimum Essential Medium without phenol red; supplemented with 10% FCS(hereinafter referred to as MEM) at the concentration of 1.0×10^5 cells/ml. Each 0.2 ml of the cell suspension was dispensed into individual wells of 96 well microplate, and incubated overnight in a CO2 incubator at 37° C. After the incubation, the culture supernatant was removed by suction and the wells were washed with 0.2 ml/well of phosphate buffered saline. The cells were pretreated with 0.1 ml/well of the test compound solution [dimethyl sulfoxide (hereinafter referred to as DMSO) solution was diluted to 100 times with MEM] for 30 min in a CO2 incubator at 37° C. Then the culture supernatant was removed by suction and cells were treated with 0.2 ml/well of TPA solution (120 μM of DMSO solution was diluted to 60 nM with MEM) containing the same concentration of the compound as pretreatment for 60 min in a CO2 incubator at 37° C. The cells pretreated with MEM and incubated with only the TPA solution containing no test compound were used as control.
# After these treatments, each 0.1 ml of culture supernatant collected from each well and 0.1 ml of MEM as background were transferred to individual wells of new 96 well microplate and incubated at 65° C. for 10 min after plate sealing to inactivate endogenous AP in MEM and cells. 0.1 ml of the substrate solution (prepared by diluting an aqueous 100 mg/ml p-nitrophenyl phosphate solution prepared previously 100 times with 0.01% magnesium chloride/1 M diethanolamine before use) for AP was added to each well and incubated for 120 minutes at room temperature in the dark. The absorbance at a wavelength of 405 nm of each well was measured using a microplate reader.
# [2] = tested on: epidermal hyperplasia in male BALB/c mice; experiment: TPA-induced epidermal hyperplasia on mouse dorsal skin (epidermal thickness); format: in vivo; conditions: topical application in acetone 5 minutes, 24 hours and 48 hours after TPA; skin excised at 72 hours; FIG. 1
# Description: After backs of male BALB/c mice were shaved, 10 μL of a TPA-acetone solution (0.1 mM) was applied to the dorsal skin surface in an area of about 1 cm^2. In the medicine-treated group, a volume of 20 μL of a solution prepared by dissolving the test compound in acetone was applied to the same area 5 minutes, 24 hours and 48 hours after TPA application. In the non-treated group, only TPA was applied. In the control group, acetone was applied instead of the TPA-acetone solution.
# The mice were sacrificed and the skin tissues were excised 72 hours after TPA application. Then the tissues were fixed with formalin, the vertical sections including the center of the TPA- or acetone-treated area were prepared and embedded in paraffin according to the conventional method. And they were stained by hematoxylin-eosin after removing paraffin. The epidermal thickness was measured using a microscope.
# In FIG. 1, the numeral in the ordinate represents the epidermal thickness (μm). A bar graph of TPA (-) represents the epidermal thickness of the control group and a bar graph of TPA represents the epidermal thickness of the non-treated group. The respective bar graphs of 1, 10 and 100 denote the epidermal thickness of the group wherein the test compound is administered at a dose of 1, 10 and 100 (μg/wound) of each test compound. […]
SMILES,IC50 [1] [nM],hyperplasia inhibitory activity (epidermal thickness) [2]
"CCOCCOc1ccc(S(=O)(=O)N2C[C@H](O)[C@@H](O)[C@H](O)[C@@H]2C(=O)NO)cc1 [Compound b, (2R,3R,4R,5S)-1-(4′-ethoxyethoxy-benzenesulfonyl)-3,4,5-trihydroxy-piperidine-2-carboxylic acid hydroxamide]",450,–
"COc1ccc(S(=O)(=O)N2C[C@H](O)[C@@H](O)[C@@H](O)[C@@H]2C(=O)NO)cc1 [Compound d, (2R,3S,4R,5S)-3,4,5-trihydroxy-1-(4′-methoxybenzenesulfonyl)-piperidine-2-carboxylic acid hydroxamide]",1600,–
"COc1ccc(S(=O)(=O)N2C[C@H](O)[C@@H](O)[C@H](O)[C@@H]2C(=O)NO)cc1 [Compound a, (2R,3R,4R,5S)-3,4,5-trihydroxy-1-(4′-methoxybenzenesulfonyl)-piperidine-2-carboxylic acid hydroxamide]",610,–

# Now from value to compound, other results behind:
IC50 [1] [nM],SMILES,hyperplasia inhibitory activity (epidermal thickness) [2]
340,"O=C(NO)[C@H]1[C@@H](O)[C@H](O)[C@H](O)CN1S(=O)(=O)c1ccc(Oc2ccccc2)cc1 [Compound e, (2R,3R,4R,5R)-3,4,5-trihydroxy-1-(4′-phenoxybenzenesulfonyl)-piperidine-2-carboxylic acid hydroxamide]",–
350,"O=C(NO)[C@H]1[C@@H](O)[C@H](O)[C@@H](O)CN1S(=O)(=O)c1ccc(Oc2ccccc2)cc1 [Compound c, (2R,3R,4R,5S)-3,4,5-trihydroxy-1-(4′-phenoxybenzenesulfonyl)-piperidine-2-carboxylic acid hydroxamide]",hyperplasia inhibitory activity
